This passage reports IC50 and Ki results from patent US9580430B2, “9H-pyrimido[4,5-B]indoles and related analogs as BET bromodomain inhibitors” (THE REGENTS OF THE UNIVERSITY OF MICHIGAN, priority 2014, dated 2017).

For one assay, the target named is T1, recombinant BRD4 BD1 (Homo sapiens, UniProt O60885).
T1 construct: for recombinant BRD4 BD1 and BRD4 BD2 proteins
Put plainly: Competitive fluorescence-polarization (FP) binding assay, BRD4 BD1. As to IC50 (nM) BRD4 BD1: probe 1.5 nM. Conditions: for Ki: read-out: Binding affinities (FP) BRD4BD1 Ki. In a few lines: (§1)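 FP competition with FAM-labelled probe (ZBA248 or BRD-1F) against preincubated protein/probe complex; BD1 at 10 nM and BD2 at 6 nM final, in 100 mM potassium phosphate pH 6.5, 0.01% Triton X-100. 30 min, room temperature. IC50 by nonlinear regression; Ki also derived, using probe Kd from protein saturation.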

The next assay addresses T2, recombinant BRD4 BD2 (Homo sapiens, UniProt O60885).
T2 construct: for recombinant BRD4 BD1 and BRD4 BD2 proteins
In words: Competitive fluorescence-polarization (FP) binding assay, BRD4 BD2. As to IC50 (nM) BRD4 BD2: probe 1.5 nM. The settings on record: for Ki: read-out: Binding affinities (FP) BRD4BD2 Ki. In a few lines: as §1

For a further assay, the system named is MDA-MB-436. In words: Cell growth inhibition, MDA-MB-436 breast cancer cells (WST-8). Format: cell-based. Conditions: Homo sapiens, 4 days. In a few lines: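 IC50 was computed from WST-8-based cell counting in MDA-MB-436 cells, with absorbance read at 450 nm.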
The subject of the next assay is MOLM-13. Put plainly: Cell growth inhibition, MOLM-13 leukemia cells (CellTiter-Glo). Format: cell-based. Conditions: Homo sapiens, MOLM-13, 96 h; 4 days; read-out: IC50 (nM) MOLM-13 Cell Line (CellTiter-Glo assay). The gist of the method:
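MOLM-13 leukemia cells treated with compounds; viability read by CellTiter-Glo luminescence after 10-20 min reagent incubation at room temperature. IC50 derived from luminescent signal.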
For orientation: ATP-based viability assays read luminescence as a measure of living cells.

The subject of the next assay is LNCaP. Put plainly: Cell growth inhibition, LNCaP prostate cancer cells (Cell-Titer GLO). Format: cell-based. The settings on record: Homo sapiens, read-out: Cellular data LNCaP IC50.
Setting [1] is: competitive FP assay, protein 10 nM, probe […], read-out: IC50 (nM) BRD4 BD1.
Where [2] appears, read: competitive FP assay, protein 6 nM, probe […], read-out: IC50 (nM) BRD4 BD2.
The mark [3] stands for this setting: MDA-MB-436, 96 h, read-out: IC50 (nM) MDA-MB-436 Cell Line (WST assay).
[4] abbreviates: FP competitive binding, BRD4 BD1, read-out: Binding affinities (FP) BRD4BD1 IC50.
Where [5] appears, read: FP competitive binding, BRD4 BD1.
[6] abbreviates: FP competitive binding, BRD4 BD2, read-out: Binding affinities (FP) BRD4BD2 IC50.
Setting [7] is: FP competitive binding, BRD4 BD2.
Where [8] appears, read: 96 h, MDA-MB-436 cells, read-out: Cellular data MDA-MB-436 IC50.

Like-named read-outs stand apart in the source and are kept apart here.

Usually IC50 stands for the concentration that gives 50% inhibition. On to `CCn1nc(C2CC2)c(F)c1Nc1nc(C)nc2[nH]c3cc(-c4c(C)noc4C)c(OC)cc3c12` [Cpd. No. 250, N-(3-cyclopropyl-1-ethyl-4-fluoro-1H-pyrazol-5-yl)-7-(3,5-dimethylisoxazol-4-yl)-6-methoxy-2-methyl-9H-pyrimido[4,5-b]indol-4-amine], for which the IC50 on recombinant BRD4 BD1 (setting [1]) stood at 12 nM; at recombinant BRD4 BD2 (setting [2]), 14 nM; with MDA-MB-436 (setting [3]), 67 nM; in the assay with MOLM-13, 21 nM.

As for `COc1cc2c(cc1-c1c(C)noc1C)[nH]c1nc(C)nc(Nc3cc(C4(C)CC4)nn3C)c12` [Cpd. No. 251, 7-(3,5-dimethylisoxazol-4-yl)-6-methoxy-2-methyl-N-(1-methyl-3-(1-methylcyclopropyl)-1H-pyrazol-5-yl)-9H-pyrimido[4,5-b]indol-4-amine], the IC50 is 9 nM at recombinant BRD4 BD1 (setting [1]), 5.5 nM at recombinant BRD4 BD2 (setting [2]), 23 nM in the assay with MDA-MB-436 (setting [3]) and 11 nM with MOLM-13.

With `COc1cc2c(cc1-c1c(C)noc1C)[nH]c1ccnc(Nc3cc(C4CC4)nn3C)c12` [Cpd. No. 255, N-(3-cyclopropyl-1-methyl-1H-pyrazol-5-yl)-7-(3,5-dimethylisoxazol-4-yl)-8-methoxy-5H-pyrido[4,3-b]indol-1-amine], the IC50 on recombinant BRD4 BD1 (setting [1]) amounted to 10.5 nM; on recombinant BRD4 BD2 (setting [2]) it was 8.5 nM; in the assay with MDA-MB-436 (setting [3]), 26 nM; in the assay on MOLM-13, 12 nM.

As a reminder, the Ki is the dissociation constant of the complex between target and ligand, obtained from inhibition or displacement. As to `COc1cc2c(cc1-c1c(C)noc1C)[nH]c1nc(C)nc(Nc3cc(C4CC4)nn3C[C@H](O)CO)c12` [Cpd. No. 281], the IC50 on recombinant BRD4 BD1 (setting [4]) is 6.1 nM; at recombinant BRD4 BD2 (setting [6]), 3.6 nM; in the assay on LNCaP it was 116 nM; in the assay with MDA-MB-436 (setting [8]) it was 351 nM. In addition, the Ki at recombinant BRD4 BD1 (setting [5]) worked out at 2 nM; on recombinant BRD4 BD2 (setting [7]), 5.7 nM.

`COc1cc2c(cc1-c1c(C)noc1C)[nH]c1nc(C)nc(Nc3cc(C4CC4)nn3CC3COCCO3)c12` (stereo not drawn) [Cpd. No. 282, N-(1-((1,4-dioxan-2-yl)methyl)-3-cyclopropyl-1H-pyrazol-5-yl)-7-(3,5-dimethylisoxazol-4-yl)-6-methoxy-2-methyl-9H-pyrimido[4,5-b]indol-4-amine]: the IC50 was found to be 6.1 nM at recombinant BRD4 BD1 (setting [4]), 0.5 nM at recombinant BRD4 BD2 (setting [6]), 22 nM in the assay with LNCaP and 33 nM with MDA-MB-436 (setting [8]). Besides, the inhibition constant Ki on recombinant BRD4 BD1 (setting [5]) turned out to be 1.3 nM; at recombinant BRD4 BD2 (setting [7]) it was 1 nM.

As for `COc1cc2c(cc1-c1c(C)noc1C)[nH]c1nc(C)nc(Nc3nn(C)cc3C(C)C)c12` [compound 78, 7-(3,5-dimethylisoxazol-4-yl)-N-(4-isopropyl-1-methyl-1H-pyrazol-3-yl)-6-methoxy-2-methyl-9H-pyrimido[4,5-b] indol-4-amine], the IC50 stood at 16 nM at recombinant BRD4 BD1 (setting [1]), 63.5 nM on recombinant BRD4 BD2 (setting [2]), 271 nM in the assay on MDA-MB-436 (setting [3]) and 97.4 nM in the assay on MOLM-13.

In the case of `COc1cc2c(cc1-c1c(C)noc1C)[nH]c1nc(C)nc(Nc3nnc4ccccn34)c12` [compound 101, N-([1,2,4]triazolo[4,3-a]pyridin-3-yl)-7-(3,5-dimethylisoxazol-4-yl)-6-methoxy-2-methyl-9H-pyrimido[4,5-b]indol-4-amine], the IC50 was found to be 978 nM on recombinant BRD4 BD1 (setting [1]), 786 nM at recombinant BRD4 BD2 (setting [2]), 811 nM with MDA-MB-436 (setting [3]) and 266 nM in the assay on MOLM-13.

As to `COc1cc2c(cc1-c1c(C)noc1C)[nH]c1nc(C)nc(Nc3cn(C)nc3C(C)(C)O)c12` [compound 269, 2-(4-(7-(3,5-dimethylisoxazol-4-yl)-6-methoxy-2-methyl-9H-pyrimido[4,5-b]indol-4-ylamino)-1-methyl-1H-pyrazol-3-yl)propan-2-ol], the IC50 at recombinant BRD4 BD1 (setting [1]) amounted to 21.9 nM; on recombinant BRD4 BD2 (setting [2]), 35.1 nM; in the assay on MDA-MB-436 (setting [3]), 154 nM; with MOLM-13 it was 97.4 nM.
